Data published in patent US9326508B2, “(S)-3′-methyl-abscisic acid and esters thereof” (Valent BioSciences Corporation, priority 2014, dated 2016).

Experiments:
[1] = system: rice seedling; details: according to Ueno, et al.; cited from earlier work
[2] = system: Arabidopsis thaliana; assay: Seed Germination Assay; format: in vivo; details: for time for 100% germination: Arabidopsis seed, 0.3 ppm test compound, 0.5% DMSO
Method: To determine the germination inhibition potency of the analogs, a germination assay was performed with the model plant Arabidopsis thaliana. Arabidopsis seed was sterilized by shaking for five minutes in 200 proof ethanol, followed by shaking for five minutes in a 10% bleach solution. The seeds were then washed five times in sterile, distilled, de-ionized water and suspended in 0.1% phytoagar. The tubes containing the seeds were wrapped in aluminum foil and stratified at 4° C. for at least two days. The analogs were tested in four-well plates. Each plate contained one well each of a 0.5% DMSO control, (S)-ABA, (S)-3′-methyl-ABA (Example 2) and (±)-3′-methyl-ABA (Example 4), all at a desired concentration. In a typical experiment, 18 microliters of a 100 ppm stock solution of each compound in 10% DMSO was pipetted into the designated well. Additional DMSO (28.2 microliters) and water (3.8 microliters) was added to each well, followed by the addition of 5.95 mL of ½×Murashige and Skoog media containing 1.2% Bactoagar to all the wells. This gave a total volume of 6.0 mL per well, 0.3 ppm of the test compound and final DMSO concentration of 0.5%. When the media solidified, one hundred sterile stratified Arabidopsis seeds were distributed into each well. The plates were sealed with surgical tape and placed in a growth chamber running diurnal cycles of 12 hours of light at 24° C. and 12 hours of darkness at 19° C. The plates were scanned daily at high resolution (600 dpi) until all seeds were germinated. A seed was scored as germinated once the radicle emerged. The percentage of seeds germinated each day is reported in the graph of FIG. 1. The tests at each concentration were repeated at least twice and the results were reproducible.

[3] = system: (S)-ABA 8′-hydroxylase; details: according to Ueno, et al.; cited from earlier work

CC1=C(C)C(O)(/C=C/C(C)=C\C(=O)O)C(C)(C)CC1=O (racemic) [Example 4, (±)-(2Z,4E)-5-(1-hydroxy-2,3,6,6-tetramethyl-4-oxocyclohex-2-en-1-yl)-3-methylpenta-2,4-dienoic acid]
activity in rice seedling elongation assay relative to (S)-ABA [1]: equal activity to (S)-ABA
time for 100% germination [2]: 8 days
activity in (S)-ABA 8′-hydroxylase inhibition assay relative to (S)-ABA [3]: weaker activity than (S)-ABA

CC1=CC(=O)CC(C)(C)[C@@]1(O)/C=C/C(C)=C/C(=O)O [(S)-ABA, (S)-abscisic acid]
time for 100% germination [2]: 6 days

CC1=C(C)[C@](O)(/C=C/C(C)=C\C(=O)O)C(C)(C)CC1=O [Example 2, (2Z,4E)-((S)-1-hydroxy-2,3,6,6-tetramethyl-4-oxocyclohex-2-en-1-yl)-3-methylpenta-2,4-dienoic acid]
potency at inhibiting Arabidopsis seed germination relative to (S)-ABA or (±)-3′-methyl-ABA ([2]; 0.3 ppm, FIG. 1): more potent
time for 100% germination [2]: 15 days
